Measured values: PubChem BioAssay AID1845199 (Molecular Pharmacology Branch, DTP, NCI, 2023)

Tested on: 556581-035-R-J1 tumor spheroid viability, % test/control
Assay: Anticancer human tumor 556581-035-R-J1 patient-derived ovarian carcinoma cell line growth inhibition
Details: spheroids with HUVEC and MSC; for viability, T/C: stronger effect = lower value
In short: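 Single agents and combinations were tested on spheroids built from tumor cells plus HUVEC and hMSC, at half-log dilutions starting at or near clinical Cmax, else 10 microM; final DMSO 0.25% (v/v).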

[1] = curve of first compound, second compound 0.003 µM
[2] = curve of first compound, second compound 0.00949 µM
[3] = curve of first compound, second compound 0.03 µM
[4] = curve of first compound, second compound 0.0949 µM
[5] = curve of first compound, second compound 0.3 µM
[6] = second compound 0.003 µM, first compound 0.00949 µM
[7] = second compound 0.003 µM, first compound 0.03 µM
[8] = second compound 0.003 µM, first compound 0.0949 µM
[9] = second compound 0.003 µM, first compound 0.3 µM
[10] = second compound 0.003 µM, first compound 0.949 µM
[11] = second compound 0.003 µM, first compound 3 µM
[12] = second compound 0.00949 µM, first compound 0.00949 µM
[13] = second compound 0.00949 µM, first compound 0.03 µM
[14] = second compound 0.00949 µM, first compound 0.0949 µM
[15] = second compound 0.00949 µM, first compound 0.3 µM
[16] = second compound 0.00949 µM, first compound 0.949 µM
[17] = second compound 0.00949 µM, first compound 3 µM
[18] = second compound 0.03 µM, first compound 0.00949 µM
[19] = second compound 0.03 µM, first compound 0.03 µM
[20] = second compound 0.03 µM, first compound 0.0949 µM
[21] = second compound 0.03 µM, first compound 0.3 µM
[22] = second compound 0.03 µM, first compound 0.949 µM
[23] = second compound 0.03 µM, first compound 3 µM
[24] = second compound 0.0949 µM, first compound 0.00949 µM
[25] = second compound 0.0949 µM, first compound 0.03 µM
[26] = second compound 0.0949 µM, first compound 0.0949 µM
[27] = second compound 0.0949 µM, first compound 0.3 µM
[28] = second compound 0.0949 µM, first compound 0.949 µM
[29] = second compound 0.0949 µM, first compound 3 µM
[30] = second compound 0.3 µM, first compound 0.00949 µM
[31] = second compound 0.3 µM, first compound 0.03 µM
[32] = second compound 0.3 µM, first compound 0.0949 µM
[33] = second compound 0.3 µM, first compound 0.3 µM
[34] = second compound 0.3 µM, first compound 0.949 µM
[35] = second compound 0.3 µM, first compound 3 µM
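Note: spheroids exposed to compounds for 7 days before viability read.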

Cc1sc2c(c1C)C(c1ccc(Cl)cc1)=NC(CC(=O)Nc1ccc(O)cc1)c1nnc(C)n1-2 (centres undefined) + CC[C@@]1(O)C(=O)OCc2c1cc1n(c2=O)Cc2cc3c(CN(C)C)c(O)ccc3nc2-1
IC50 [1]: > 3000 nM
IC50 [2]: > 3000 nM
IC50 [3]: > 3000 nM
IC50 [4]: 281 nM
IC50 [5]: < 9.49 nM
viability, T/C [6]: 103%
viability, T/C [7]: 85.4%
viability, T/C [8]: 83.8%
viability, T/C [9]: 74.8%
viability, T/C [10]: 77.5%
viability, T/C [11]: 74.2%
viability, T/C [12]: 99.4%
viability, T/C [13]: 84.3%
viability, T/C [14]: 74%
viability, T/C [15]: 68.8%
viability, T/C [16]: 71.4%
viability, T/C [17]: 64.2%
viability, T/C [18]: 74.3%
viability, T/C [19]: 76.5%
viability, T/C [20]: 68.8%
viability, T/C [21]: 66.7%
viability, T/C [22]: 65.6%
viability, T/C [23]: 54.7%
viability, T/C [24]: 59.3%
viability, T/C [25]: 58.4%
viability, T/C [26]: 56.2%
viability, T/C [27]: 50.7%
viability, T/C [28]: 39.6%
viability, T/C [29]: 41.4%
viability, T/C [30]: 16.4%
viability, T/C [31]: 16.9%
viability, T/C [32]: 12.9%
viability, T/C [33]: 17.1%
viability, T/C [34]: 18.6%
viability, T/C [35]: 11.3%

CNCc1ccc(-c2cc(-c3nc(-c4ccc(S(=O)(=O)C(C)C)cc4)cnc3N)on2)cc1 + CC[C@@]1(O)C(=O)OCc2c1cc1n(c2=O)Cc2cc3c(CN(C)C)c(O)ccc3nc2-1
IC50 [1]: 1380 nM
IC50 [2]: 1170 nM
IC50 [3]: 854 nM
IC50 [4]: 270 nM
IC50 [5]: < 9.49 nM
viability, T/C [6]: 101%
viability, T/C [7]: 94.6%
viability, T/C [8]: 100%
viability, T/C [9]: 104%
viability, T/C [10]: 67.6%
viability, T/C [11]: 13.7%
viability, T/C [12]: 88.7%
viability, T/C [13]: 90.5%
viability, T/C [14]: 87.1%
viability, T/C [15]: 93.6%
viability, T/C [16]: 59%
viability, T/C [17]: 9.61%
viability, T/C [18]: 83.7%
viability, T/C [19]: 84.7%
viability, T/C [20]: 92.4%
viability, T/C [21]: 75%
viability, T/C [22]: 47.8%
viability, T/C [23]: 9.43%
viability, T/C [24]: 64.4%
viability, T/C [25]: 67%
viability, T/C [26]: 59%
viability, T/C [27]: 47.6%
viability, T/C [28]: 31.3%
viability, T/C [29]: 1.58%
viability, T/C [30]: 16.8%
viability, T/C [31]: 15.9%
viability, T/C [32]: 14.3%
viability, T/C [33]: 11.8%
viability, T/C [34]: 8.45%
viability, T/C [35]: 0.85%

Cn1nnc2c(C(N)=O)ncn2c1=O
viability, T/C (compound 1 µM): 103% [middle of 10 runs]
viability, T/C (compound 10 µM): 104% [middle of 10 runs]
viability, T/C (compound 31.6 µM): 107% [middle of 10 runs]
IC50 (compound alone, run of 10/17/2019): > 100000 nM

Cc1sc2c(c1C)C(c1ccc(Cl)cc1)=NC(CC(=O)Nc1ccc(O)cc1)c1nnc(C)n1-2 (centres undefined) + Cn1nnc2c(C(N)=O)ncn2c1=O
IC50 (curve of first compound, second compound 1 µM): > 3000 nM
IC50 (curve of first compound, second compound 3.16 µM): > 3000 nM
IC50 (curve of first compound, second compound 10 µM): > 3000 nM
IC50 (curve of first compound, second compound 31.6 µM): > 3000 nM
IC50 (curve of first compound, second compound 100 µM): 2700 nM
viability, T/C (second compound 1 µM, first compound 0.00949 µM): 112%
viability, T/C (second compound 1 µM, first compound 0.03 µM): 95.6%
viability, T/C (second compound 1 µM, first compound 0.0949 µM): 82%
viability, T/C (second compound 1 µM, first compound 0.3 µM): 76.4%
viability, T/C (second compound 1 µM, first compound 0.949 µM): 68%
viability, T/C (second compound 1 µM, first compound 3 µM): 64.5%
viability, T/C (second compound 3.16 µM, first compound 0.00949 µM): 101%
viability, T/C (second compound 3.16 µM, first compound 0.03 µM): 97.6%
viability, T/C (second compound 3.16 µM, first compound 0.0949 µM): 84.8%
viability, T/C (second compound 3.16 µM, first compound 0.3 µM): 75.6%
viability, T/C (second compound 3.16 µM, first compound 0.949 µM): 65.5%
viability, T/C (second compound 3.16 µM, first compound 3 µM): 61.2%
viability, T/C (second compound 10 µM, first compound 0.00949 µM): 98%
viability, T/C (second compound 10 µM, first compound 0.03 µM): 94.6%
viability, T/C (second compound 10 µM, first compound 0.0949 µM): 82.6%
viability, T/C (second compound 10 µM, first compound 0.3 µM): 72.6%
viability, T/C (second compound 10 µM, first compound 0.949 µM): 68.1%
viability, T/C (second compound 10 µM, first compound 3 µM): 57.5%
viability, T/C (second compound 31.6 µM, first compound 0.00949 µM): 96.9%
viability, T/C (second compound 31.6 µM, first compound 0.03 µM): 93.9%
viability, T/C (second compound 31.6 µM, first compound 0.0949 µM): 82.2%
viability, T/C (second compound 31.6 µM, first compound 0.3 µM): 70.7%
viability, T/C (second compound 31.6 µM, first compound 0.949 µM): 65.1%
viability, T/C (second compound 31.6 µM, first compound 3 µM): 54.3%
viability, T/C (second compound 100 µM, first compound 0.00949 µM): 99.5%
viability, T/C (second compound 100 µM, first compound 0.03 µM): 99.2%
viability, T/C (second compound 100 µM, first compound 0.0949 µM): 79.9%
viability, T/C (second compound 100 µM, first compound 0.3 µM): 71.5%
viability, T/C (second compound 100 µM, first compound 0.949 µM): 59.1%
viability, T/C (second compound 100 µM, first compound 3 µM): 48.5%
